# Results taken from patent US4292317A, “1,4-Dihydro-quinoline-3-carboxylic acid derivatives, process for their preparation and compositions containing them” (Laboratorie Roger Bellon, priority 1977, dated 1981).
# Key:
# Strept. pyogenes A. 65 [1] = assay: Systemic infection in mice; format: in vivo; conditions: Streptococcus pyogenes, po, 168 h, mice, p.o. at infection and 6 hours later, Strept. pyogenes A. 65, 7 days
# Protocol: (§1) The activity of the compounds according to the invention against systemic infections in mice, caused by Staphylococcus 50,774, Streptococcus pyogenes A 65, Pseudomonas aeruginosa No. 12 and Escherichia coli P 5101, has been studied.
# (§2) The infections were set up by intraperitoneal injection of a suspension of the bacterial culture corresponding to the germ studied. The products were administered orally at the time of injection, and 6 hours later. […] Aureus and for 7 days for the other germs.
# (§3) Oxolinic acid was used as the reference substance.
# Escherichia coli P 5101 [2] = assay: Systemic infection in mice; format: in vivo; conditions: P5101, po, 168 h, mice, p.o. at infection and 6 hours later, E. coli P 5101, 7 days
# Protocol: as §1, §2, §3
# Staph. aureus 50,774 [3] = assay: Systemic infection in mice; format: in vivo; conditions: Staphylococcus aureus, po, 336 h, mice, p.o. at infection and 6 hours later, Staph. aureus 50,774, 14 days
# Protocol: as §1, §2, §3
# [4] = tested on: Pseudomonas aeruginosa No. 12; assay: Systemic infection in mice; format: in vivo; conditions: po, 168 h, mice, p.o. at infection and 6 hours later, P. aeruginosa No. 12, 7 days
# Protocol: as §1, §2, §3
# Strept. pyogenes A. 65 [5] = assay: M.I.C. for germ used in experimental infection; format: cell-based; conditions: Streptococcus pyogenes, 18 h; Table 4; Strept. pyogenes A. 65; read-out: M.I.C.
# Protocol: (§4) After sterilisation at 120° C., the pH was 6.8.
# (§5) The minimum inhibitory concentrations (M.I.C.) were determined by dilution of the test compounds in this mixture, the concentration ranging from 0.05 to 100 μg/cm^3 in a geometric progression with a factor of 2.
# (§6) The inoculation of the dishes was carried out by means of a multiple inoculator with 10^-3 dilutions of 18 hour old broth cultures.
# (§7) The dishes were placed in an oven at 37° C. and the readings were taken afer an incubation time of 18 hours. The M.I.C. was taken as the lowest concentration which inhibited a culture.
# Escherichia coli P 5101 [6] = assay: M.I.C. for germ used in experimental infection; format: cell-based; conditions: P5101, 18 h, Table 4, E. coli P 5101, read-out: M.I.C.
# Protocol: as §4, §5, §6, §7
# Staph. aureus 50,774 [7] = assay: M.I.C. for germ used in experimental infection; format: cell-based; conditions: Staphylococcus aureus, 18 h; Table 4; Staph. aureus 50,774; read-out: M.I.C.
# Protocol: as §4, §5, §6, §7
# [8] = tested on: Pseudomonas aeruginosa No. 12; assay: M.I.C. for germ used in experimental infection; format: cell-based; conditions: 18 h, Table 4, P. aeruginosa No. 12, read-out: M.I.C.
# Protocol: as §4, §5, §6, §7
# Providentia 0223 = assay: M.I.C. in vitro, nutrient agar dilution; format: cell-based; conditions: 18 h; Table III; Providentia 0223; read-out: M.I.C.
# Protocol: as §4, §5, §6, §7
# Sh. sonnei I.P.S. = assay: M.I.C. in vitro, nutrient agar dilution; format: cell-based; conditions: Shigella sonnei, 18 h; Table III; Sh. sonnei I.P.S.; read-out: M.I.C.
# Protocol: as §4, §5, §6, §7
# Serratia = assay: M.I.C. in vitro, nutrient agar dilution; format: cell-based; conditions: 18 h, Table III, read-out: M.I.C.
# Protocol: as §4, §5, §6, §7
# Esch. coli 111 B4 = assay: M.I.C. in vitro, nutrient agar dilution; format: cell-based; conditions: Escherichia coli, 18 h; Table III; Esch. coli 111 B4
# Protocol: as §4, §5, §6, §7
# Staph. 209 P = assay: M.I.C. in vitro, nutrient agar dilution; format: cell-based; conditions: 18 h; Table III; Staph. 209 P; read-out: M.I.C.
# Protocol: as §4, §5, §6, §7
# Arizona 6.211 = assay: M.I.C. in vitro, nutrient agar dilution; format: cell-based; conditions: 18 h; Table III; Arizona 6.211; read-out: M.I.C.
# Protocol: as §4, §5, §6, §7
# Esch. coli 54.127 O.M.S. = assay: M.I.C. in vitro, nutrient agar dilution; format: cell-based; conditions: Escherichia coli, 18 h; Table III; Esch. coli 54.127 O.M.S.; read-out: M.I.C.
# Protocol: as §4, §5, §6, §7
# Strepto A 561 = assay: M.I.C. in vitro, nutrient agar dilution; format: cell-based; conditions: 18 h; Table III; Strepto A 561
# Protocol: as §4, §5, §6, §7
# Staph. 9.144 = assay: M.I.C. in vitro, nutrient agar dilution; format: cell-based; conditions: 18 h; Table III; Staph. 9.144; read-out: M.I.C.
# Protocol: as §4, §5, §6, §7
# Klebs. pneum. 10.031 = assay: M.I.C. in vitro, nutrient agar dilution; format: cell-based; conditions: 18 h; Table III; Klebs. pneum. 10.031; read-out: M.I.C.
# Protocol: as §4, §5, §6, §7
# Pr. vulgaris 12-53 = assay: M.I.C. in vitro, nutrient agar dilution; format: cell-based; conditions: Proteus vulgaris, 1253, 18 h; Table III; Pr. vulgaris 12-53; read-out: M.I.C.
# Protocol: as §4, §5, §6, §7
# Ps. aeruginosa A.22 = assay: M.I.C. in vitro, nutrient agar dilution; format: cell-based; conditions: Pseudomonas aeruginosa, 18 h; Table III; Ps. aeruginosa A.22; read-out: M.I.C.
# Protocol: as §4, §5, §6, §7
# Pr. mirabilis Nig = assay: M.I.C. in vitro, nutrient agar dilution; format: cell-based; conditions: Proteus mirabilis, 18 h; Table III; Pr. mirabilis Nig; read-out: M.I.C.
# Protocol: as §4, §5, §6, §7
# S. oranienburg 1066 = assay: M.I.C. in vitro, nutrient agar dilution; format: cell-based; conditions: Salmonella enterica, 18 h; Table III; S. oranienburg 1066; read-out: M.I.C.
# Protocol: as §4, §5, §6, §7
# Bord. bronchis. 4.617 = assay: M.I.C. in vitro, nutrient agar dilution; format: cell-based; conditions: 18 h; Table III; Bord. bronchis. 4.617; read-out: M.I.C.
# Protocol: as §4, §5, §6, §7
# S. enteritidis Danysz = assay: M.I.C. in vitro, nutrient agar dilution; format: cell-based; conditions: Salmonella enterica, 18 h; Table III; S. enteritidis Danysz; read-out: M.I.C.
# Protocol: as §4, §5, §6, §7
# Pr. morganii A.236 = assay: M.I.C. in vitro, nutrient agar dilution; format: cell-based; conditions: Morganella morganii, 18 h; Table III; Pr. morganii A. 236; read-out: M.I.C.
# Protocol: as §4, §5, §6, §7
# Esch. coli 95 I.S.M. = assay: M.I.C. in vitro, nutrient agar dilution; format: cell-based; conditions: Escherichia coli, 18 h; Table III; Esch. coli 95 I.S.M.; read-out: M.I.C.
# Protocol: as §4, §5, §6, §7
# Ps. aeruginosa 72.345 = assay: M.I.C. in vitro, nutrient agar dilution; format: cell-based; conditions: Pseudomonas aeruginosa, 18 h; Table III; Pd. aeruginosa 72.345; read-out: M.I.C.
# Protocol: as §4, §5, §6, §7
# B. subtilis = assay: M.I.C. in vitro, nutrient agar dilution; format: cell-based; conditions: Bacillus subtilis, 18 h; Table III; B. Subtilis; read-out: M.I.C.
# Protocol: as §4, §5, §6, §7
# Strepto D.M. 19 = assay: M.I.C. in vitro, nutrient agar dilution; format: cell-based; conditions: 18 h; Table III; Strepto D.M. 19; read-out: M.I.C.
# Protocol: as §4, §5, §6, §7
# in vivo = conditions: mouse, mice
# Salm. typhi 0901 = assay: microbe, parasite or virus in culture; format: cell-based; conditions: Salmonella enterica, 18 h; Table III; Salm. typhi 0901
# Protocol: as §4, §5, §6, §7
structure (smiles),measurement,setting,value
"C=CCN1CCN(c2cc3c(cc2F)c(=O)c(C(=O)O)cn3CC)CC1 [Example 23, 7-(4-Allylpiperazinyl)-1-ethyl-6-fluoro-4-oxo-1,4-dihydro-quinoline-3-carboxylic acid]",ED50,Strept. pyogenes A. 65 [1]; read-out: ED50,64.7 mg/kg
same,ED90,Strept. pyogenes A. 65 [1]; read-out: ED90,130 mg/kg
same,ED50,Escherichia coli P 5101 [2]; read-out: ED50,2.9 mg/kg
same,ED90,Escherichia coli P 5101 [2]; read-out: ED90,5.2 mg/kg
same,ED50,"Staph. aureus 50,774 [3]; read-out: ED50",5.2 mg/kg
same,ED90,"Staph. aureus 50,774 [3]; read-out: ED90",17 mg/kg
same,ED50,[4]; read-out: ED50,13.3 mg/kg
same,ED90,[4]; read-out: ED90,26.9 mg/kg
same,MIC,Strept. pyogenes A. 65 [5],3.13 µg/mL
same,MIC,Escherichia coli P 5101 [6],0.39 µg/mL
same,MIC,"Staph. aureus 50,774 [7]",0.39 µg/mL
same,MIC,[8],6.25 µg/mL
same,MIC,Providentia 0223,1.6 to 6.2 µg/mL
same,MIC,Sh. sonnei I.P.S.,0.1 to 0.2 µg/mL
same,MIC,Serratia,0.025 µg/mL
same,MIC,Esch. coli 111 B4,0.2 to 0.8 µg/mL
same,MIC,Staph. 209 P,0.1 to 0.2 µg/mL
same,MIC,Arizona 6.211,0.2 to 0.8 µg/mL
same,MIC,Esch. coli 54.127 O.M.S.,0.1 to 0.8 µg/mL
same,MIC,Strepto A 561,1.6 to 6.2 µg/mL
same,MIC,Staph. 9.144,0.2 µg/mL
same,MIC,Klebs. pneum. 10.031,0.1 to 0.2 µg/mL
same,MIC,Pr. vulgaris 12-53,0.2 to 0.4 µg/mL
same,MIC,Ps. aeruginosa A.22,1.6 to 3.12 µg/mL
same,MIC,Pr. mirabilis Nig,0.4 to 0.8 µg/mL
same,MIC,S. oranienburg 1066,6.2 to 12.5 µg/mL
same,MIC,Bord. bronchis. 4.617,3.12 µg/mL
same,MIC,S. enteritidis Danysz,0.4 µg/mL
same,MIC,Pr. morganii A.236,0.2 µg/mL
same,MIC,Esch. coli 95 I.S.M.,0.1 to 0.4 µg/mL
same,MIC,Ps. aeruginosa 72.345,3.12 µg/mL
same,MIC,B. subtilis,0.1 to 0.2 µg/mL
same,MIC,Strepto D.M. 19,0.8 to 3.15 µg/mL
same,LD50,in vivo; iv,177 mg/kg
same,LD50,in vivo; po,> 2000 mg/kg
same,MIC,Salm. typhi 0901,0.1 to 0.4 µg/mL
